# pEC50: −log10 of the molar value.
# Columns and labels:
# human mAChR M1 [1] = target: T1, human mAChR M1 (Homo sapiens, UniProt P11229); assay: mAChR M1 cell-based functional assay (calcium mobilization), agonist mode: compound alone, Emax relative to acetylcholine maximum; conditions: for pEC50 / Agonist Activity Human M1 EC50: human mAChR M1; for Emax: relative to the maximum for acetylcholine
# T1 sequence (P11229 1-460): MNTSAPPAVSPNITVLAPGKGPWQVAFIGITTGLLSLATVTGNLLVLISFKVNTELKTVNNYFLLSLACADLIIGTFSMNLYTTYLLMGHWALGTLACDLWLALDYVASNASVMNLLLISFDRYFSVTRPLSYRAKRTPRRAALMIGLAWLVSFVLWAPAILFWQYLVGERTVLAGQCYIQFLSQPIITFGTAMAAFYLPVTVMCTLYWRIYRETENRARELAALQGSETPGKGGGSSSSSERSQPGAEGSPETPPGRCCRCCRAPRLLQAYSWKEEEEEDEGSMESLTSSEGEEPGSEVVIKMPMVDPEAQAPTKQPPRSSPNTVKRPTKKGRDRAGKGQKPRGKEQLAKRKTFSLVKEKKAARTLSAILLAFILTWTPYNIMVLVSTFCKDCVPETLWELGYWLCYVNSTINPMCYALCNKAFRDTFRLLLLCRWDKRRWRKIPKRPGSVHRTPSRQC
# How it was run: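 Agonist activity is the concentration-dependent rise in intracellular calcium (Fluo-4, 1 Hz read) after compound addition, measured before any acetylcholine was added, in stable hM1 CHO-K1 cells. Curves were 11-point, 1:3 dilutions fitted by four-parameter logistic. Emax is given as a fraction of maximal acetylcholine response.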
# human mAChR M1 [2] = target: T1, human mAChR M1; assay: mAChR M1 cell-based functional assay (calcium mobilization), PAM mode: increase in the EC20 acetylcholine response
# How it was run: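 PAM readout is the concentration-dependent rise in the EC20 acetylcholine calcium signal, fitted to a four-parameter logistic (EC50, Emax). Compounds were preincubated from 4 s before ACh at 144 s (EC20) and 230 s (EC80). hM1-expressing CHO-K1 cells loaded with Fluo-4, FDSS ratio read.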
pEC50 (human mAChR M1 [1]),Emax (human mAChR M1 [1]) [%],pEC50 (human mAChR M1 [2]),Emax (human mAChR M1 [2]) [%],Agonist Activity Human M1 EC50 (human mAChR M1 [1]),Structure (SMILES)
5.10,53,6.59,74,–,"[2H]C1([2H])c2ncccc2C(=O)N1Cc1c(F)cc(-c2ccc(O[C@@H]3CCOC3)c3nn(C)cc23)cc1F [Compound 137, (R)-6-(2,6-difluoro-4-(2-methyl-7-((tetrahydrofuran-3-yl)oxy)-2H-indazol-4-yl)benzyl)-6,7-dihydro-5H-pyrrolo[3,4-b]pyridin-5-one-7,7-d2]"
–,9,6.95,85,Inactive,"[2H]C1([2H])c2ncccc2C(=O)N1Cc1c(F)cc(-c2ccc(OC)c3nn(C)cc23)cc1F [Compound 39, 6-(2,6-difluoro-4-(7-methoxy-2-methyl-2H-indazol-4-yl)benzyl)-6,7-dihydro-5H-pyrrolo[3,4-b]pyridin-5-one-7,7-d2]"
≤ 5.00,16,6.34,81,–,"[2H]C1([2H])c2ncccc2C(=O)N1Cc1c(C)cc(-c2ccc(C)c3nn(C([2H])([2H])[2H])cc23)cc1F [Compound 157, 6-(2-fluoro-6-methyl-4-(7-methyl-2-(methyl-d3)-2H-indazol-4-yl)benzyl)-6,7-dihydro-5H-pyrrolo[3,4-b]pyridin-5-one-7,7-d2]"
–,2,5.66,74,Inactive,"[2H]C1([2H])c2ncccc2C(=O)N1Cc1c(F)cc(-c2cccc3c2cnn3C2COC2)cc1F [Compound 66, 6-(2,6-difluoro-4-(1-(oxetan-3-yl)-1H-indazol-4-yl)benzyl)-6,7-dihydro-5H-pyrrolo[3,4-b]pyridin-5-one-7,7-d2]"
–,3,< 5.00,43,Inactive,"[2H]C1([2H])c2ncccc2C(=O)N1Cc1ccc(-c2ccc3nn(C)cc3c2C)cc1F [Compound 242, 6-(4-(2,4-dimethyl-2H-indazol-5-yl)-2-fluorobenzyl)-6,7-dihydro-5H-pyrrolo[3,4-b]pyridin-5-one-7,7-d2]"
5.10,11,6.31,80,–,"[2H]C1([2H])c2ncccc2C(=O)N1Cc1c(F)cc(-c2ccc(C(F)F)c3nn(C)cc23)cc1F [Compound 123, 6-(4-(7-(difluoromethyl)-2-methyl-2H-indazol-4-yl)-2,6-difluorobenzyl)-6,7-dihydro-5H-pyrrolo[3,4-b]pyridin-5-one-7,7-d2]"
≤ 5.00,22,6.11,80,–,"[2H]C1([2H])c2ncccc2C(=O)N1Cc1c(F)cc(-c2ccc(OCCOC3CC3)c3nn(C)cc23)cc1F [Compound 150, 6-(4-(7-(2-cyclopropoxyethoxy)-2-methyl-2H-indazol-4-yl)-2,6-difluorobenzyl)-6,7-dihydro-5H-pyrrolo[3,4-b]pyridin-5-one-7,7-d2]"
–,2,5.66,68,Inactive,"[2H]C1([2H])c2ncccc2C(=O)N1Cc1c(F)cc(-c2ccc(OC)c3c2cnn3C([2H])([2H])[2H])cc1F [Compound 69, 6-(2,6-difluoro-4-(7-methoxy-1-(methyl-d3)-1H-indazol-4-yl)benzyl)-6,7-dihydro-5H-pyrrolo[3,4-b]pyridin-5-one-7,7-d2]"
5.10,50,6.91,73,–,"[2H]C1([2H])c2ncc(O)cc2C(=O)N1Cc1c(F)cc(-c2cccc3nn(C([2H])([2H])[2H])cc23)cc1F [Compound 141, 6-(2,6-difluoro-4-(2-(methyl-d3)-2H-indazol-4-yl)benzyl)-3-hydroxy-6,7-dihydro-5H-pyrrolo[3,4-b]pyridin-5-one-7,7-d2]"
< 5.00,9,6.49,84,–,"[2H]C1([2H])c2ncccc2C(=O)N1Cc1ccc(-c2cccc3nn(C([2H])([2H])[2H])cc23)cc1F [Compound 53, 6-(2-fluoro-4-(2-(methyl-d3)-2H-indazol-4-yl)benzyl)-6,7-dihydro-5H-pyrrolo[3,4-b]pyridin-5-one-7,7-d2]"

# — US20240228489A1, “POSITIVE ALLOSTERIC MODULATORS OF THE MUSCARINIC ACETYLCHOLINE RECEPTOR M1” (Vanderbilt University, priority 2021, published 2024)
